Key:
[1] = molecular target: T1, GCase (purified enzyme, Velaglucerase alfa, VPRIV) (Homo sapiens, UniProt P04062); assay: GCase AC50 enzyme activity assay; assay type: biochemical; conditions: pH 5.6, 4-MuGlu substrate, compounds 0-40 μM
T1 construct: purchased Shire Human Genetic Therapies, Cambridge, MA
T1 sequence (P04062 40-536): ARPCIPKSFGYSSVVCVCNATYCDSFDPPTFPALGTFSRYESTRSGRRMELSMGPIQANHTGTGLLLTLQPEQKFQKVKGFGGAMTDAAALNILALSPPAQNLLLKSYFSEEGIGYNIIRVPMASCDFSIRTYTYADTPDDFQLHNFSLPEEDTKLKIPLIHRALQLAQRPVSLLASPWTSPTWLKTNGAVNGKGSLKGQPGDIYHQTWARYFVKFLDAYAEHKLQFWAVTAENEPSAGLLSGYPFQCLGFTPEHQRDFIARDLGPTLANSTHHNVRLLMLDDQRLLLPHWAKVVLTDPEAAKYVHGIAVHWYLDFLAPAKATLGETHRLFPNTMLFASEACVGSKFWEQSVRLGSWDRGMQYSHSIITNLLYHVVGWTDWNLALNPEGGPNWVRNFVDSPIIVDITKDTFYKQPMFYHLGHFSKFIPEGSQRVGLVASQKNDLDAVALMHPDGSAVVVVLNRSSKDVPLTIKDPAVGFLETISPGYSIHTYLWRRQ
Procedure: An in vitro enzyme assay was performed through a dose response curve of Compounds (0-40 μM) with purified enzyme (Velaglucerase alfa, VPRIV®, Shire Human Genetic Therapies, Cambridge, MA) in citric phosphate [0.025 mM] buffer (pH 5.6) where 4-MuGlu [4 mM] was the substrate. Compounds were pre-incubated with the enzyme for 40 minutes at room temperature prior to substrate addition, and then incubated at 37° C. for 1 hour. AC50 represents the concentration of a Compound that produces 50% of its maximal response in the in vitro GCase activity assay.
(§1) GCase activities were determined fluorometrically with 4-MuGlu. The relative fluorescence unit (RFU) of 4-MuGlu standard curve is generated with the plate reader (M5, Molecular Devise) as 1 n mole=56500 RFU. The human mutant Gaucher fibroblasts were purchased from Coriell Institute (Camden, NJ): N370/ΔGG (Cat #: GM00852) and L444P/L444P (cat #: GM00877)

[2] = molecular target: T2, GCase in healthy human fibroblasts (Homo sapiens, UniProt P04062); assay: EC50 cell-based assay for GCase, healthy human fibroblasts (GCase cell); conditions: 5 days compound treatment (0-20 μM)
T2 construct: Healthy human fibroblasts (GCase cell); endogenous in cells; host or cells: healthy human fibroblasts
T2 sequence (P04062 40-536): T1 sequence (P04062 40-536)
Procedure: In cell assays, GCase activity measurements were carried out on harvested cell pellets on the 5th day of Compound treatment. Healthy human fibroblasts (GCase cell), mutant N370/ΔGG (GCase N370S) or L444P/L444P (GCase L444P) were incubated with the Compound (0-20 μM) for 5 days with 15% fetal bovine serum (FBS) in Dulbecco's Modified Eagle Medium (DMEM) in 100 mm culture dishes. Fresh Medium with Compound were replaced every other day. On the 5th day of Compound treatment, harvested cell pellets were lysed with 1% Na-taurocholate (Tc) and 1% Triton X-100 (Tx), and mixed with the reaction buffer which contained 0.025 mM Citric phosphate buffer (pH 5.6), 0.25% Tc/Tx and 4 mM 4-MuGlu, then incubated at 37° C. for 1 hour. EC50 represents the concentration of a Compound that produces 50% of its maximal response in the cell-based GCase activity assay.
as §1

AC50 [1] [µM]	EC50 [2] [µM]	SMILES
< 10	< 10	O=C(Nc1ccc(OC(F)(F)F)cc1)c1nc2cc(F)cc(C(=O)NCC3CCO3)c2o1 (stereo not shown) [Compound 22, 5-fluoro-N7-((oxetan-2-yl)methyl)-N2-(4-(trifluoromethoxy)phenyl)benzo[d]oxazole-2,7-dicarboxamide]
< 10	< 10	COc1ccc(NC(=O)c2ncc(CC(=O)NCC3CCO3)o2)cc1 (stereo not shown) [Compound 50, N-(4-methoxyphenyl)-5-(2-((oxetan-2-ylmethyl)amino)-2-oxoethyl)oxazole-2-carboxamide]
< 10	< 10	COc1ccc(NC(=O)c2nc3cc(F)cc(C(=O)NCC4CCO4)c3o2)cc1 (stereo not shown) [Compound 13, 5-fluoro-N2-(4-methoxyphenyl)-N7-(oxetan-2-ylmethyl)-1,3-benzoxazole-2,7-dicarboxamide]
< 10	< 10	COc1ccc2[nH]c(COc3ccccc3C(=O)NCC3CCCO3)nc2c1 (stereo not shown) [Compound 12, 2-((5-methoxy-1H-benzo[d]imidazol-2-yl)methoxy)-N-((tetrahydrofuran-2-yl)methyl)benzamide]
10 to 100	< 10	COc1ccc(NC(=O)N2Cc3cccc(C(=O)NCC4CCO4)c3C2)c(Cl)c1 (stereo not shown) [Compound 43, N2-(2-chloro-4-methoxyphenyl)-N4-(oxetan-2-ylmethyl)isoindoline-2,4-dicarboxamide]
< 10	< 10	O=C(NCC1CCO1)c1cc(F)ccc1OCc1nc2cc(Cl)ccc2[nH]1 (stereo not shown) [Compound 25, 2-((6-chloro-1H-benzo[d]imidazol-2-yl)methoxy)-5-fluoro-N-((oxetan-2-yl)methyl)benzamide]
< 10	< 10	COc1ccc(NC(=O)N2Cc3cccc(C(=O)NCC4CCO4)c3C2)cc1 (stereo not shown) [Compound 30, N2-(4-methoxyphenyl)-N4-((oxetan-2-yl)methyl)isoindoline-2,4-dicarboxamide]
< 10	< 10	CC1(C)CCC(NC(=O)C(C)(C)Oc2ccc(F)cc2C(=O)NCC2CCO2)CO1 (stereo not shown) [Compound 39, 2-[2-[(6,6-dimethyltetrahydropyran-3-yl)amino]-1,1-dimethyl-2-oxo-ethoxy]-5-fluoro-N-(oxetan-2-ylmethyl)benzamide]
< 10	< 10	CC(C)(Oc1ccc(F)cc1C(=O)NCC1CCO1)C(=O)NCCN1CCOCC1 (stereo not shown) [Compound 27, 2-[1,1-dimethyl-2-(2-morpholinoethylamino)-2-oxo-ethoxy]-5-fluoro-N-(oxetan-2-ylmethyl)benzamide]
10 to 100	< 10	O=C(NC1CCC(F)(F)CC1)c1nc2cc(F)cc(C(=O)NCC3CCO3)c2o1 (stereo not shown) [Compound 28, N2-(4,4-difluorocyclohexyl)-5-fluoro-N7-(oxetan-2-ylmethyl)benzo[d]oxazole-2,7-dicarboxamide]
< 10	< 10	COc1ccc(NC(=O)c2nc3cc(F)cc(C(=O)NCC4CCCO4)c3o2)cc1 (stereo not shown) [Compound 48, 5-fluoro-N2-(4-methoxyphenyl)-N7-(tetrahydrofuran-2-ylmethyl)-1,3-benzoxazole-2,7-dicarboxamide]
< 10	< 10	COc1ccc(NC(=O)C(C)(C)Oc2ccc(F)cc2C(=O)NCC2CCCO2)cc1 (stereo not shown) [Compound 33, 2-(2-(4-methoxyphenylcarbamoyl)propan-2-yloxy)-5-fluoro-N-((tetrahydrofuran-2-yl)methyl)benzamide]
< 10	< 10	CN(CC1CCCO1)C(=O)c1ccccc1OCC(=O)Nc1ccc(Br)cc1 (stereo not shown) [Compound 1, 2-((4-bromophenylcarbamoyl)methoxy)-N-((tetrahydrofuran-2-yl)methyl)-N-methylbenzamide]
< 10	< 10	COc1c(C(=O)Nc2ccc(Br)cc2)oc2c(C(=O)NCC3CCCO3)cccc12 (stereo not shown) [Compound 6, N2-(4-bromophenyl)-N7-((tetrahydrofuran-2-yl)methyl)-3-methoxybenzofuran-2,7-dicarboxamide]
